Test results as given in US5494917A, “Cognition enhancing quinuclidine compound” (Kanegafuchi Kagaku Kogyo Kabushiki Kaisha, priority 1993, dated 1996).

Columns and labels:
M1 receptor = target: T1, M1 receptor (Rattus norvegicus, UniProt P08482); assay: M1 receptor binding ((3H)pirenzepine, cerebral cortex); design: species or system Wistar male rat; settings: for nH (pseudo Hill coefficient) / IC50 / Ki: (3H)pirenzepine, rat cerebral cortex; for IC50: 25° C., 60 minutes, pH 7.4; for Ki: calculated from IC50; for M1 receptor binding ability / selectivity (in words): M1 vs M2; for M1 receptor binding ability compared with muscarinic agonists (in words): vs AF102B and McN-A-343
T1 construct: from tissue; host or cells: Wistar male rat cerebral cortex, washed homogenate
T1 sequence (P08482 1-460): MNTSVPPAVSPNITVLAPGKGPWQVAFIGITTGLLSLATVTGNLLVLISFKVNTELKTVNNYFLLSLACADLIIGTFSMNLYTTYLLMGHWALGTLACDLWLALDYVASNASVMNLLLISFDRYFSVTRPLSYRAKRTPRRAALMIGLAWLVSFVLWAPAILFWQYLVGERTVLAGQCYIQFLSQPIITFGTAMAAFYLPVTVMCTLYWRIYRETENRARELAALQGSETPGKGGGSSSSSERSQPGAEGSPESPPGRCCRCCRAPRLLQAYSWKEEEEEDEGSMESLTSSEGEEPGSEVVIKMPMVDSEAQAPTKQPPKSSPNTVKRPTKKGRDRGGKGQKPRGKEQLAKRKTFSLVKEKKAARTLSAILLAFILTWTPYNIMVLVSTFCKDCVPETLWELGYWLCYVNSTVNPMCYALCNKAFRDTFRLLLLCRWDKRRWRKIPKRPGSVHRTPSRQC
Protocol: The binding ability of the test compounds to M1 receptor was determined according to a modification of the method of Watson et al. (Life Sci., 32, 3001 (1983)). Concretely, 100 volume (W/V) of 10 mM Na--K phosphate buffer (pH 7.4) was added to a cerebral cortex of a Wistar male rat, and after the homogenization with polytron, the homogenate was centrifuged and washed twice. To 1 ml of the test liquid which was prepared by re-suspending the resulting precipitate, were added 20 μl of (^3 H)pirenzepine, M1 receptor specific antagonist, and 20 μl of a test medicinal compound. After the incubation at 25° C. for 60 minutes, the mixture was filtrated and washed with a glass filter, and an amount of (^3 H)pirenzepine bound to the receptor was counted by means of a liquid scintillation counter.
(§1) Ki is an affinity of a medicinal compound for a receptor, which is calculated from the following formula: [formula]
(§2) In addition, nH is pseudo Hill coefficient which represents the number of a binding part of a receptor. When the values of IC50 and Ki are smaller, a binding ability of a medicinal compound to a receptor is stronger.

M2 receptor = target: T2, M2 receptor (Rattus norvegicus, UniProt P10980); assay: M2 receptor binding ((3H)N-methyl scopolamine, heart)
T2 construct: from tissue; host or cells: rat heart, 40,000 g membrane fraction
T2 sequence (P10980 1-466): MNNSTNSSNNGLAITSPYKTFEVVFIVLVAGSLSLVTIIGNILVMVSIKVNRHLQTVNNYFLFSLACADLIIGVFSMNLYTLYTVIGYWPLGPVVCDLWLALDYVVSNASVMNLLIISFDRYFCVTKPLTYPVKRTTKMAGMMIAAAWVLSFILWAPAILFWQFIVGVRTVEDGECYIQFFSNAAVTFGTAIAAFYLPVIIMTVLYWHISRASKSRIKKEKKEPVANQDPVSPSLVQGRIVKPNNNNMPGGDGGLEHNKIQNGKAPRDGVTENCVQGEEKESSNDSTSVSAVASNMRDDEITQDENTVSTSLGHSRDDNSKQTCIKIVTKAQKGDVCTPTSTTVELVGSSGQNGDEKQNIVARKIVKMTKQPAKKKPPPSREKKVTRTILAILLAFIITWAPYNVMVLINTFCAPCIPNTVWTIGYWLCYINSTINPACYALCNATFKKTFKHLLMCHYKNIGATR
Protocol: The binding ability to M2 receptor was determined according to a modification of the method of Buckley et al. (Mol. Pharmacol., 35, 469 (1989)). Concretely, 10 volume (W/V) of 50 mM Tris-HCl buffer (pH 7.4) was added to rat's heart, and after the homogenization with polytron, the homogenate was centrifuged and washed twice at 500 g for 10 minutes. The resulting supernatant was centrifuged four times at 40,000 g for 20 minutes. To 450 μl of the test liquid which was prepared by re-suspending the resulting precipitate, were added 200 μl of (^3 H)N-methyl scopolamine, a muscarinic specific antagonist, and 100 μl of a test medicinal compound. After the incubation at 22° C. for 90 minutes, the amount of (^3 H)N-methyl scopolamine found was determined.
as §1, §2

[1] = Acute toxicity test, oral; assay type: in vivo, ddY male mice; settings: mouse, in vivo; oral, 2 weeks observation; estimated
Protocol: (§3) As experimental animals, Wistar male rats and ddY male mice were used for the experiments after they were housed for a week under every 12 hours'dark-light cycle at room temperature of 24° to 26° C.
(§4) With respect to Compounds 1a and 1b shown in Table 1 as test compounds, the acute toxicity was examined using ddY mice according to the following method.
(§5) In each group, six male ddY mice weighing 27 to 30 g were employed. Compounds 1a and 1b suspended in an aqueous solution of 0.5% sodium carboxymethylcellulose were orally administered in a dose of 0.1 ml/10 g body weight. […] The LD50 (mg/kg) values were estimated from the ratio of the number of dead mice to the number of mice used.

ddY mice = assay: Acute toxicity test, oral; assay type: in vivo, ddY male mice; settings: 100 mg/kg oral, 2 weeks observation, 0.5% sodium carboxymethylcellulose
Protocol: as §3, §4, §5

[2] = tested on: experimental amnesia in rat induced by lesioning basal forebrain (BF); assay: Anti-amnesic effect: step-through passive avoidance, amnesia induced by BF lesion (ibotenic acid); assay type: in vivo, Wistar male rat; settings: for Latency: retention after 24 hours, max 300 s; for minimal effective dose: Rattus norvegicus, oral, BF lesion amnesia, read-out: most potent minimal effective dose
Protocol: as §3
The effect on experimental amnesia in rat induced by lesioning basal forebrain (BF) was evaluated.
The experiment was carried out using an experimental apparatus of step-through type passive avoidance task for rat (made by Ohara-ika-sangyoK.K. ) comprising two compartments of dark and light. That is, the dark compartment (height: 200 cm, width: 150 cm, length: 200 cm) was a black plastic box and was floored with stainless grids for giving an electrical shock so that an electricity might be turned on a determined time after interception of a photobeam placed in the dark compartment. The light compartment made of transparent plastic (height: 200 cm, width: 250 cm, length: 200 cm) was provided adjacent to the dark compartment and was lightened from a location spaced 25 cm above by a 60 W electric lamp. Between the two compartments, there was provided an entrance with a guillotine door which could be opened and closed, and when the guillotine door was opened, a rat could freely move from one compartment to another.
Amnesia was induced by BF lesion. Among presently known methods for inducing amnesia, this method is considered to provide an animal model having the most similar pathology to Alzheimer's disease. The BF lesion was carried out by fixing an animal to a stereotaxic apparatus under nembutal anesthesia, inserting a stainless pipe into the BF area according to the brain map of Koenig, and injecting ibotenic acid bilaterally from the stainless pipe. In the sham-operation group, although craniotomy was carried out, ibotenic acid was not injected and therefore BF was not lesioned. The animals were used for experiments after recovery period of about 4 weeks.
Anti-amnesic effect was evaluated according to the following procedure.
A Wistar male rat (9 week-old) previously conditioned in the dark-light box was put in the light compartment and the guillotine door was opened. When the rat moved into the dark compartment, 150 V electrical shock was given for 3 seconds from the floor grid (aquisition trial). After 24 hours, retention trial was carried out in the same manner as in the aquisition trial, and latency, a period until the animal put in the light compartment entered the dark compartment, was measured maximally 300 seconds.
Every test compound was suspended in a distilled water containing 2.5% of gum arabic and 0.2% of Tween 80. […] The doses were 0.01 to 10 mg/kg.

[3] = (3H)N-methyl scopolamine, rat heart, 22° C., 90 minutes, pH 7.4
[4] = 0.1 mg/kg p.o., 1 hour before aquisition trial
[5] = 1.0 mg/kg p.o., 1 hour before aquisition trial

SMILES	nH (pseudo Hill coefficient) (M1 receptor)	IC50 (M1 receptor) [nM]	Ki (M1 receptor) [nM]	M1 receptor binding ability / selectivity (in words) (M1 receptor)	M1 receptor binding ability compared with muscarinic agonists (in words) (M1 receptor)	IC50 (M2 receptor; [3]) [nM]	LD50 at 336 h [1] [mg/kg]	dead mice (ddY mice)	Latency [2, 4] [s]	Latency [2, 5] [s]	minimal effective dose [2] [mg/kg]	nH (pseudo Hill coefficient) (M2 receptor; (3H)N-methyl scopolamine, rat heart)	Ki (M2 receptor; (3H)N-methyl scopolamine, rat heart, calculated from IC50) [nM]	IC50 (M2 receptor; M2 receptor binding) [nM]	M2 receptor binding ability weaker than M1 receptor binding ability (M2 receptor; M2 vs M1)	Latency ([2]; 0.01 mg/kg p.o., 1 hour before aquisition trial) [s]	Latency ([2]; 10 mg/kg p.o., 1 hour before aquisition trial) [s]	Latency ([2]; 1.0 mg/kg p.o., 30 minutes before aquisition trial) [s]	Latency ([2]; 5.0 mg/kg p.o., 30 minutes before aquisition trial) [s]
C(=C1/CN2CCC1CC2)/c1cccc(Oc2ccccc2)c1 [Compound 1a]	0.9 ± 0.06	221 ± 32	152 ± 22	strong and specific M1 receptor binding ability	stronger binding ability to M1 than muscarinic agonists, AF102B (in course of clinical testing) and McN-A-343	> 10000	≥ 100	no dead mice	38	156	1								
C(=C1\CN2CCC1CC2)/c1cccc(Oc2ccccc2)c1 [Compound 1b]	0.8 ± 0.07	23 ± 3	16 ± 2	strong and specific M1 receptor binding ability	stronger binding ability to M1 than muscarinic agonists, AF102B (in course of clinical testing) and McN-A-343	4400 ± 100	≥ 100	no dead mice	182	139	0.1	1.0 ± 0.02	1700 ± 40	≤ 10000	about 190 times	76	99		
C[N+](C)(C)CC#CCOC(=O)Nc1cccc(Cl)c1 [McN-A-343, 4[[[3-chlorophenyl)amino]carbonyl]oxy]-N, N, N-trimethyl-2-butyn-1-aminium chloride, reference compound]	0.9 ± 0.05	842 ± 88	581 ± 61			> 10000													
Nc1c2c(nc3ccccc13)CCCC2 [Tacrine, tetrahydroaminoacridine, reference compound]																		79	188
CC1OC2(CS1)CN1CCC2CC1 (stereo not drawn) [AF102B, cis-2-methylspiro(1,3-oxathiolane-5,3') quinuclidine, reference compound]	0.8 ± 0.01	729 ± 116	509 ± 80			> 10000					1								
